Results published in patent publication US20220313626A1, “SMALL MOLECULE INHIBITORS FOR TREATING CANCER IN A SUBJECT HAVING TUMORS WITH HIGH INTERSTITIAL PRESSURE” (GUANGZHOU MAXINOVEL PHARMACEUTICALS CO., LTD., priority 2019, published 2022).

System: B16F10 tumor cells
Assay: Anti-tumor efficacy in the B16F10 models
Format: in vivo
Conditions: for TGI / Tumor Volume: BID, 20 days
Procedure: Materials required for the experiment: Antibody: mouse PD-1 antibody, Product specifications: 7.09 mg/mL (50 mg/mL), Lot No.: 695318A1 purchased from BioXcell, storage at 4 °C. Experimental animals: 60 C57BL/6 mice, female, 6˜8 weeks old, 17˜21 g, purchased from Shanghai Lingchang Biotechnology Co. Ltd. Formulation materials: castor oil (Cremophor RH40) , CAS No.: 61788-85-0, Lot No.: 29761847G0, purchased from Shanghai Xietai Chemical Co. Ltd.; β-cyclodextrin (SBE-β-CD), CAS No.: 128446-35-5, Lot No.: 20180110, purchased from Shanghai Shaoyuan Chemical Co. Ltd.; DMEM culture medium, Art. No.: 11995-065, Lot No.:2025378, purchased from Gibco Co. Ltd.; PBS, Art. No.: SH30256.01, Lot No.: AB10141338, purchased from HyClone Co. Ltd.; Fetal bovine serum: Art. No.: 04-002-1A, Lot No.: 1625436, purchased from Boehringer Ingelheim Co. Ltd.; Methyl cellulose (MC), Art. No.: M7027-250G, Lot No.: 079K0054V, purchased from Sigma.
Cell preparation and implantation: The B16-F10 tumor cells (ATCC CRL6475™) were maintained in vitro as a monolayer culture in DMEM medium supplemented with 10% heat inactivated fetal bovine serum at 37° C. in an atmosphere of 5% CO2 in air. The tumor cells were routinely subcultured three times weekly by trypsin-EDTA treatment. The cells growing to a confluency around 70%-80% were harvested and counted for tumor inoculation.
Tumor cell inoculation and group administration: The 100 uL cell suspension containing 1×10^6 B16F10 tumor cells (cells suspended in base DMEM medium) was inoculated into the right subcutaneous of mice. On the second day after inoculation, according to the order of tumor inoculation, stratified randomization was used to group and start the administration on the day of grouping.
Preparation of test substances: Preparation of formulation: 700 mL of sterile water was added into the volumetric flask with magnetic stirring to have a vortex. 100 g of castor oil (Cremophor RH40) was added with a spoon slowly into the vortex and the solution was kept stirring. 200 g of β-cyclodextrin (SBE-β-CD) was added while the solution was kept stirring until the solution was clear, and the total volume was set to 1000 mL, which contained 10% (w/v) Cremophor RH40+20% (w/v) an aqueous solution of SBE-β-CD.
Preparation of compound suspension: 169.16 mg compound was weighed, 14.012 mL 10% (w/v) Cremophor RH40+20% (w/v) SBE-β-CD aqueous solution were added, and the suspension solution with a concentration of 12.0 mg/mL was obtained by fully mixing with magnetic stirring. 6.0 mL of the compound suspension solution with concentration of 12.0 mg/mL was pipetted and 6.0 mL aqueous formulation solution was added. The suspension solution with a concentration of 6.0 mg/mL was obtained by fully mixing with magnetic stirring. 6.0 mL of the compound suspension solution with concentration of 6.0 mg/mL was pipetted and 6.0 mL aqueous formulation solution was added. The suspension solution with a concentration of 3.0 mg/mL was obtained by fully mixing with magnetic stirring. The compound suspension solution was prepared once a day.
Preparation of mPD-1 antibody: 0.564 mL mPD-L1 antibody (7.09 mg/mL) original solution was pipetted and […] PBS solution was added. The solution was fully mixed and the final concentration of 1 mg/mL solution was obtained.
Procedure: The mice in the vehicle group were weighed and recorded in the electronic balance according to their numbers. The mice in the vehicle group were given prepared formulation solution twice a day by oral administration according to their body weight with a capacity of 0.1 mL/10 g. Each mouse spent about 20 seconds and 10 mice in each group shared for about 5 minutes.
The mice in the antibody (10 mg/kg) group were weighed and recorded in the electronic balance according to their numbers. The mice in the antibody group were given prepared antibody solution twice a week by IP administration according to their body weight with a capacity of 0.1 ml/10 g. […]

[1] = B16F10, C57BL/6 mice, 30 mg/kg, PO
[2] = B16F10, C57BL/6 mice, 60 mg/kg, PO
[3] = B16F10, C57BL/6 mice, 120 mg/kg, PO

Cc1c(/C=C/c2cc(CN[C@@](C)(CO)C(=O)O)ccc2C(F)(F)F)cccc1-c1ccccc1 [Compound]
growth of subcutaneous transplanted melanoma cell line in mice (B16F10, C57BL/6 mice): significantly inhibit the growth
TGI [1]: 35.59%
Tumor Volume [1]: 795.99 ± 112.92 mm^3
TGI [2]: 38.87%
Tumor Volume [2]: 755.48 ± 155.85 mm^3
TGI [3]: 47.35%
Tumor Volume [3]: 650.67 ± 157.53 mm^3
tolerability (adverse reactions) (C57BL/6 mice, PO, BID up to 120 mg/kg): well tolerated
